Test results: patent US4207326A, “Antimicrobial quaternary pyrazole derivatives” (Cilag-Chemie A.G., priority 1979, dated 1980)

tested on: S. aureus; assay: Antibacterial activity: Minimum Inhibitory Concentration; assay type: cell-based, Staphylococcus aureus ATCC 6538; conditions: Staphylococcus aureus, Day 1, 37° C., 24 hours
Protocol: (§1) The antimicrobial activity was determined by inoculation of the test microorganism into suitable growth media containing solutions of the compounds at concentrations of 100, 50, 10, 5, 1.0, 0.5 and 0.1 μg/ml. The reference antibiotics used were Gentamicin for the antibacterial tests and Amphotericin B for the antimycotic and antifungal tests. After incubation the antimicrobial activity was recorded as the Minimal Inhibitory Concentration (M.I.C.), i.e., the lowest concentration preventing macroscopically visible growth, for each test compound against each organism.
(§2) An initial solution of each formula (I) compound to be tested in sterile distilled water was prepared at a concentration of 1000 μg/ml. With appropriate dilutions using sterile distilled water, additional solutions were prepared at concentrations of 500, 100, 50, 10, 5 and 1 μg/ml.
(§3) They were cultured and maintained on Tryptone Soy Agar (Oxoid CM 131), with the addition of 10% horse blood for the S. pyogenes.
(§4) To prepare the organisms as inocula for the test, slopes of this medium were streaked with the organisms and incubated at 37° C. for 24 hours. 4.5 Ml volumes of Brian-Heart Infusion Broth (Oxoid CM 225) were then inoculated with a platinum loop from the agar slope cultures and incubated for 24 hours at 37° C. The final inocula were then prepared by adding 0.1 ml aliquots of the Brain-Heart Infusion Broth cultures to 100 ml volumes of sterile physiological saline.
(§5) (a) For the test on each of the bacterial strains and each of the test and reference compounds, a series of 8 tubes containing 4.5 ml volumes of Brain-Heart Infusion Broth (Oxoid CM 225) were prepared. To 7 of these were added 0.5 ml volumes of the final solutions of the test compouns, giving final concentrations in the broths of 100, 50, 10, 5, 1.0, 0.5 and 0.1 μg/ml. To the eighth tube in each series was added 0.5 ml of the solvent used and diluted as for the preparation of the 1000 μg/ml solution of the compound. This tube was used as the growth control. The tubes were inoculated with 0.02 ml aliquots of the inocula prepared in accordance with "(a) Bacteria" above, and incubated at 37° C. for 24 hours. The tubes were then examined for evidence of bacterial growth as shown by turbidity of the medium and the lowest concentration of the test compound which prevented bacterial growth was recorded as the Minimal Inhibitory Concentration. This test procedure was carried out on two separate days.

Row | Structure (SMILES) | MIC
1 | CCCCCCCCCCCCCCCCn1ccc[n+]1C [Example 3-D, 1-hexadecyl-2-methyl-pyrazolium methosulfate] | 0.5 mg/L
2 | CCCCCCCCCCCCn1ccc[n+]1C [Example 3-E, 1-dodecyl-2-methy-pyrazolium methosulfate] | 1 mg/L

same assay, conditions: Staphylococcus aureus, Day 2, 37° C., 24 hours

Row | Structure (SMILES) | MIC
3 | CCCCCCCCCCCCCCCCn1ccc[n+]1C [Example 3-D, 1-hexadecyl-2-methyl-pyrazolium methosulfate] | 0.5 mg/L
4 | CCCCCCCCCCCCn1ccc[n+]1C [Example 3-E, 1-dodecyl-2-methy-pyrazolium methosulfate] | 1 mg/L

tested on: P. aeruginosa; assay: as above; assay type: cell-based, Pseudomonas aeruginosa ATCC 9027; conditions: Pseudomonas aeruginosa; P. aeruginosa, Day 1; 37° C., 24 hours; read-out: Minimum Inhibitory Concentration
Protocol: as §1, §2, §3, §4, §5

Row | Structure (SMILES) | MIC
5 | CCCCCCCCCCCCCCCCn1ccc[n+]1C [Example 3-D, 1-hexadecyl-2-methyl-pyrazolium methosulfate] | 50 mg/L
6 | CCCCCCCCCCCCn1ccc[n+]1C [Example 3-E, 1-dodecyl-2-methy-pyrazolium methosulfate] | 50 mg/L

same assay, conditions: Pseudomonas aeruginosa; P. aeruginosa, Day 2; 37° C., 24 hours; read-out: Minimum Inhibitory Concentration

Row | Structure (SMILES) | MIC
7 | CCCCCCCCCCCCCCCCn1ccc[n+]1C [Example 3-D, 1-hexadecyl-2-methyl-pyrazolium methosulfate] | 10 mg/L
8 | CCCCCCCCCCCCn1ccc[n+]1C [Example 3-E, 1-dodecyl-2-methy-pyrazolium methosulfate] | 50 mg/L

tested on: C. neoformans; assay: Antimycotic activity: Minimum Inhibitory Concentration; assay type: cell-based, Cryptococcus neoformans NCPF 3184; conditions: Cryptococcus neoformans, pH 5.5, C. neoformans, Day 1; pH 5.5, 30° C., 72 hours; read-out: Minimum Inhibitory Concentrations
Protocol: as §1, §2
The C. neoformans was also maintained on Sabouraud-Dextrose Agar (Oxoid CM 41), but in this case cultures for the preparation of the inoculum were incubated on this agar at 30° C. for 48 hours. A 4.5 ml volume of citric acid-phosphate buffer pH 5.5 plus Yeast-Nitrogen Base (Difco-0392-15) was then inoculated from the agar culture and incubated at 30° C. for 48 hours. A 0.1 ml aliquot of this culture was then added to 100 ml sterile physiological saline to give the final inoculum.
(b) For the tests on each of the C. albicans, C. tropicalis and C. neoformans strains and each of the test and reference compounds, a series of 8 tubes containing 4.5 ml volumes of citric acid-phosphate buffer pH 5.5 plus Yeast-Nitrogen Base (Difco 0392-15) were prepared. To 7 of these were added 0.5 ml volumes of the final solutions of the test compounds, giving final concentrations in the broths of 100, 50, 10, 5, 1.0, 0.5 and 0.1 μg/ml. To the eighth tube in each series was added 0.5 ml of the solvent used and diluted as for the preparation of the 1000 μg/ml solution of the compound. This tube was used as the growth control. The tubes were then inoculated with 0.1 ml aliquots of the inocula prepared as in "(b) Fungi" above. The tubes inoculated with the C. albicans and C. tropicalis were inoculated at 37° C. for 72 hours and the tubes inoculated with the C. neoformans straim were incubated at 30° C. for 72 hours. […] The tubes were then examined for evidence of growth as shown by turbidity of the medium and the lowest concentration of the test compound which prevented fungal growth was recorded as the Minimal Inhibitory Concentration. This test procedure was carried out on two separate days.

Row | Structure (SMILES) | MIC
9 | CCCCCCCCCCCCCCCCn1ccc[n+]1C [Example 3-D, 1-hexadecyl-2-methyl-pyrazolium methosulfate] | 5 mg/L
10 | CCCCCCCCCCCCn1ccc[n+]1C [Example 3-E, 1-dodecyl-2-methy-pyrazolium methosulfate] | 1 mg/L

same assay, conditions: Cryptococcus neoformans, pH 5.5, C. neoformans, Day 2; pH 5.5, 30° C., 72 hours; read-out: Minimum Inhibitory Concentrations

Row | Structure (SMILES) | MIC
11 | CCCCCCCCCCCCCCCCn1ccc[n+]1C [Example 3-D, 1-hexadecyl-2-methyl-pyrazolium methosulfate] | 1 mg/L
12 | CCCCCCCCCCCCn1ccc[n+]1C [Example 3-E, 1-dodecyl-2-methy-pyrazolium methosulfate] | 5 mg/L

tested on: A. fumigatus; assay: Antifungal activity: Minimum Inhibitory Concentration; assay type: cell-based, Aspergillus fimigatus (A. fumigatus) NCPF 2140; conditions: Aspergillus fumigatus, A. fumigatus, Day 1; 27° C., one week; read-out: Minimum Inhibitory Concentration
Protocol: as §1, §2
(§6) The A. corymbifera, A. fumigatus, S. schenkii, T. rubrum, T. mentagrophytes, M. canis and P. verrucosa strains were all maintained on Sabouraud-Dextrose Agar (Oxoid CM 41) by incubating for 14 days at 27° C. To prepare the inocula 30 ml volumes of Sabouraud-Liquid medium (Oxoid CM 147) were inoculated from the agar cultures and incubated at 27° C. until heavy uniform growth resulted. The mycelial growth was then broken up by shaking with glass beads.
(§7) 1 Ml aliquots were removed from each of the cultures for the purpose of making viable counts and the cultures were then held at 4° C. The viable counts were made by preparing serial ten-fold dilutions of the cultures in sterile physiological saline and spreading on plates of Sabouraud-Dextrose Agar (Oxoid CM 41) which were then incubated at 27° C. for 14 days. When the viable counts had confirmed that each of the inocula contained approximately 10^6 colony forming units (C.F.U.) per ml the cultures were withdrawn from the refrigerator and used as the inocula for the tests.
(§8) (c) For the tests on each of the remaining seven strains and each of the test and reference compounds, a series of 8 tubes containing 4.5 ml volumes of Sabouraud-Liquid Medium (Oxoid CM 147) were prepared. To 7 of these were added 0.5 ml volumes of the final solutions of the test compounds, giving final concentrations in the broths of 100, 50, 10, 5, 1.0, 0.5 and 0.1 μg/ml. To the eighth tube in each series was added 0.5 ml of the solvent used and diluted as for the preparation of the 500 μg/ml solution of the compound. This tube was used as a growth control. The tubes were then inoculated with 0.1 ml aliquots of the inocula prepared as in "(b) Fungi" above. The tubes were then incubated at 27° C. with continuous shaking for a period of one week. The tubes were then examined for evidence of growth as shown by the presence of mycelial growth in the medium and the lowest concentration of the test compound which prevented fungal growth was recorded as the Minimal Inhibitory Concentration. This test procedure was carried out on two separate days.

Row | Structure (SMILES) | MIC
13 | CCCCCCCCCCCCCCCCn1ccc[n+]1C [Example 3-D, 1-hexadecyl-2-methyl-pyrazolium methosulfate] | 50 mg/L
14 | CCCCCCCCCCCCn1ccc[n+]1C [Example 3-E, 1-dodecyl-2-methy-pyrazolium methosulfate] | 50 mg/L

same assay, conditions: Aspergillus fumigatus, A. fumigatus, Day 2; 27° C., one week; read-out: Minimum Inhibitory Concentration

Row | Structure (SMILES) | MIC
15 | CCCCCCCCCCCCCCCCn1ccc[n+]1C [Example 3-D, 1-hexadecyl-2-methyl-pyrazolium methosulfate] | 10 mg/L
16 | CCCCCCCCCCCCn1ccc[n+]1C [Example 3-E, 1-dodecyl-2-methy-pyrazolium methosulfate] | 10 mg/L

tested on: S. schenkii; assay: as above; assay type: cell-based, Sporotrichon schenkii NCPF 3182; conditions: S. schenkii, Day 1; 27° C., one week; read-out: Minimum Inhibitory Concentration
Protocol: as §1, §2, §6, §7, §8

Row | Structure (SMILES) | MIC
17 | CCCCCCCCCCCCCCCCn1ccc[n+]1C [Example 3-D, 1-hexadecyl-2-methyl-pyrazolium methosulfate] | 5 mg/L
18 | CCCCCCCCCCCCn1ccc[n+]1C [Example 3-E, 1-dodecyl-2-methy-pyrazolium methosulfate] | 50 mg/L

same assay, conditions: S. schenkii, Day 2; 27° C., one week; read-out: Minimum Inhibitory Concentration

Row | Structure (SMILES) | MIC
19 | CCCCCCCCCCCCCCCCn1ccc[n+]1C [Example 3-D, 1-hexadecyl-2-methyl-pyrazolium methosulfate] | 10 mg/L
20 | CCCCCCCCCCCCn1ccc[n+]1C [Example 3-E, 1-dodecyl-2-methy-pyrazolium methosulfate] | 10 mg/L

tested on: T. rubrum; assay: as above; assay type: cell-based, Trichophyton rubrum NCPF 197; conditions: Trichophyton rubrum, T. rubrum, Day 1; 27° C., one week; read-out: Minimum Inhibitory Concentration
Protocol: as §1, §2, §6, §7, §8

Row | Structure (SMILES) | MIC
21 | CCCCCCCCCCCCCCCCn1ccc[n+]1C [Example 3-D, 1-hexadecyl-2-methyl-pyrazolium methosulfate] | 1 mg/L
22 | CCCCCCCCCCCCn1ccc[n+]1C [Example 3-E, 1-dodecyl-2-methy-pyrazolium methosulfate] | 5 mg/L

same assay, conditions: Trichophyton rubrum, T. rubrum, Day 2; 27° C., one week; read-out: Minimum Inhibitory Concentration

Row | Structure (SMILES) | MIC
23 | CCCCCCCCCCCCCCCCn1ccc[n+]1C [Example 3-D, 1-hexadecyl-2-methyl-pyrazolium methosulfate] | 1 mg/L
24 | CCCCCCCCCCCCn1ccc[n+]1C [Example 3-E, 1-dodecyl-2-methy-pyrazolium methosulfate] | 5 mg/L
